Laboratory results: US20180282310A1, “FORMS AND COMPOSITIONS OF BIARYL INHIBITORS OF BRUTON'S TYROSINE KINASE” (BIOGEN MA INC., priority 2015, published 2018)
In brackets after ≈: the same amount, converted by molar mass. Each block holds one molecule with its values, some of them ahead of it.

Legend:
Assay type in all cases: physicochemical
[1] = Estimated solubility in solvents at room temperature (stepwise solvent addition); conditions: for solubility: thermodynamic from solid
Experimental: Approximately 2 mg solids were added into a 3-mL glass vial. Solvents in Table 39 were then added step wise (100 μL per step) into the vials until the solids were dissolved or a total volume of 2 mL was reached. Results summarized in Table 39 were used to guide the solvent selection in polymorph screening. […] Approximately 2 mg solids were added into a 3-mL glass vial. Solvents in Table 4-6 were then added stepwise (100 μL per step) into the vials until the solids were dissolved or a total volume of 2 mL was reached. Results are summarized in Table 57, which were used to guide the solvent selection in polymorph screening.

[2] = Physical form stability on storage or drying (XRPD/TGA)
Excerpt: A sample of Compound 2 Type B reference was generated via evaporation of a solution in MeOH/MIBK (v/v, 4:1) at room temperature. […] As the sample was still wet after form transformation, Compound 2 Type B is suspected to be a metastable form at ambient conditions.

[3] = Dynamic vapor sorption (DVS): hygroscopicity and physical stability under humidity
Experimental: Dynamic Vapor Sorption (DVS) was measured via a SMS (Surface Measurement Systems) DVS Intrinsic.
To evaluate the hygroscopicity and physical stability of Compound 2 Type A under increased humidity, DVS isotherm data was collected at 25° C. with the starting sample pre-dried at 0% RH until a mass change rate lower than 0.002%/min.

Structure (SMILES): Cc1cc(-c2ccnc(Nc3cnn(C)c3)n2)ccc1CNC(=O)N1CC(OC(C)C)C1 [Compound 1 Type A, 3-isopropoxy-N-(2-methyl-4-(2-((1-methyl-1H-pyrazol-4-yl)amino)pyrimidin-4-yl)benzyl)azetidine-1-carboxamide]
solubility ([1]; organic solvent or mixture, 1,4-Dioxane, room temperature): 3500 to 4200 µg/mL (≈ 8.04 to 9.64 mM)
solubility ([1]; organic solvent or mixture, 2-MeTHF, room temperature): 2200 to 2400 µg/mL (≈ 5.05 to 5.51 mM)
solubility ([1]; organic solvent or mixture, ACN, room temperature): 2300 to 2600 µg/mL (≈ 5.28 to 5.97 mM)
solubility ([1]; organic solvent or mixture, Acetic acid, room temperature): > 54000 µg/mL
solubility ([1]; organic solvent or mixture, Acetone, room temperature): 4600 to 5800 µg/mL (≈ 10.6 to 13.3 mM)
solubility ([1]; organic solvent or mixture, CHCl3, room temperature): 20000 to 40000 µg/mL (≈ 45.9 to 91.8 mM)
solubility ([1]; organic solvent or mixture, DCM, room temperature): 12000 to 24000 µg/mL (≈ 27.6 to 55.1 mM)
solubility ([1]; organic solvent or mixture, DMAc, room temperature): > 54000 µg/mL
solubility ([1]; organic solvent or mixture, DMSO, room temperature): > 38000 µg/mL
solubility ([1]; organic solvent or mixture, EtOAc, room temperature): 1400 to 1500 µg/mL (≈ 3.21 to 3.44 mM)
solubility ([1]; organic solvent or mixture, EtOH, room temperature): 4400 to 5500 µg/mL (≈ 10.1 to 12.6 mM)
solubility ([1]; organic solvent or mixture, IPA, room temperature): 3000 to 3500 µg/mL (≈ 6.89 to 8.04 mM)
solubility ([1]; organic solvent or mixture, IPAc, room temperature): < 1500 µg/mL
solubility ([1]; organic solvent or mixture, MIBK, room temperature): < 1400 µg/mL
solubility ([1]; organic solvent or mixture, MTBE, room temperature): < 1300 µg/mL
solubility ([1]; organic solvent or mixture, MeOH, room temperature): 12500 to 25000 µg/mL (≈ 28.7 to 57.4 mM)
solubility ([1]; organic solvent or mixture, NMP, room temperature): > 56000 µg/mL
solubility ([1]; organic solvent or mixture, THF, room temperature): 6000 to 9000 µg/mL (≈ 13.8 to 20.7 mM)
solubility ([1]; organic solvent or mixture, Toluene, room temperature): < 900 µg/mL
solubility ([1]; organic solvent or mixture, n-Heptane, room temperature): < 1500 µg/mL
solubility ([1]; water, H2O, room temperature): < 1100 µg/mL

Structure (SMILES): Cc1cc(-c2ccnc(Nc3cnn(C)c3)n2)ccc1CNC(=O)N1CC(OC(C)C)C1 [Compound 1 Type B, 3-isopropoxy-N-(2-methyl-4-(2-((1-methyl-1H-pyrazol-4-yl)amino)pyrimidin-4-yl)benzyl)azetidine-1-carboxamide]
Physical stability on vacuum drying ([2]; vacuum dried at 80° C. for 15 hrs): physically unstable
Form change after the DVS test (XRPD) ([3]; 25° C.): no form change
Hygroscopicity (DVS) ([3]; 25° C.): slightly hygroscopic
Behaviour at low humidity (DVS) ([3]; relative humidity (RH) less than 10%, 25° C.): tends to dehydrate

Further lines, with some results ahead:

Solid form after storage (XRPD) ([2]; ambient conditions for 2 days): conformed to Type B
Structure (SMILES): Cc1cc(-c2ccnc(Nc3cnn(C)c3)n2)ccc1CNC(=O)N1CC(OC(C)C)C1 [Compound 1 Type E, 3-isopropoxy-N-(2-methyl-4-(2-((1-methyl-1H-pyrazol-4-yl)amino)pyrimidin-4-yl)benzyl)azetidine-1-carboxamide]

Form change after the DVS test (XRPD) ([3]; 25° C.): no form change
Hygroscopicity (DVS) ([3]; 25° C.): slightly hygroscopic
Water uptake (DVS) ([3]; 25° C./80% RH, sample pre-dried at 0% RH): 1.0%
solubility ([1]; 20 °C, organic solvent or mixture, 1,4-dioxane, room temperature (RT, 20±3° C.)): < 1000 µg/mL
solubility ([1]; 20 °C, organic solvent or mixture, 2-MeTHF, room temperature (RT, 20±3° C.)): < 1000 µg/mL
solubility ([1]; 20 °C, organic solvent or mixture, ACN, room temperature (RT, 20±3° C.)): < 1000 µg/mL
solubility ([1]; 20 °C, organic solvent or mixture, Acetone, room temperature (RT, 20±3° C.)): < 900 µg/mL
solubility ([1]; 20 °C, organic solvent or mixture, CHCl3, room temperature (RT, 20±3° C.)): < 1100 µg/mL
solubility ([1]; 20 °C, organic solvent or mixture, DCM, room temperature (RT, 20±3° C.)): < 1100 µg/mL
solubility ([1]; 20 °C, organic solvent or mixture, DMAc, room temperature (RT, 20±3° C.)): 22000 to 44000 µg/mL
solubility ([1]; 20 °C, organic solvent or mixture, DMSO, room temperature (RT, 20±3° C.)): 14000 to 21000 µg/mL
solubility ([1]; 20 °C, organic solvent or mixture, EtOAc, room temperature (RT, 20±3° C.)): < 1000 µg/mL
solubility ([1]; 20 °C, organic solvent or mixture, EtOH, room temperature (RT, 20±3° C.)): 4400 to 5500 µg/mL
solubility ([1]; 20 °C, organic solvent or mixture, IPA, room temperature (RT, 20±3° C.)): 1700 to 1800 µg/mL
solubility ([1]; 20 °C, organic solvent or mixture, IPAc, room temperature (RT, 20±3° C.)): < 1200 µg/mL
solubility ([1]; 20 °C, organic solvent or mixture, MIBK, room temperature (RT, 20±3° C.)): < 1000 µg/mL
solubility ([1]; 20 °C, organic solvent or mixture, MTBE, room temperature (RT, 20±3° C.)): < 1000 µg/mL
solubility ([1]; 20 °C, organic solvent or mixture, MeOH, room temperature (RT, 20±3° C.)): > 34000 µg/mL
solubility ([1]; 20 °C, organic solvent or mixture, NMP, room temperature (RT, 20±3° C.)): 14700 to 22000 µg/mL
solubility ([1]; 20 °C, organic solvent or mixture, THF, room temperature (RT, 20±3° C.)): < 900 µg/mL
solubility ([1]; 20 °C, organic solvent or mixture, Toluene, room temperature (RT, 20±3° C.)): < 1100 µg/mL
solubility ([1]; 20 °C, organic solvent or mixture, n-heptane, room temperature (RT, 20±3° C.)): < 900 µg/mL
Structure (SMILES): Cc1cc(-c2ccnc(Nc3cnn(C)c3)n2)ccc1CNC(=O)N1CC(OC(C)C)C1.Cl [Compound 2 Type A]
Behaviour in the solubility test (stability of the salt) ([1]; H2O, room temperature, colour change of solids from orange to faint yellow): N/A: disproportionation occurred along with obvious color change of solids from orange to faint yellow.

Solid form change during air drying (XRPD) ([2]; air drying at ambient conditions): converted into Compound 2 Type A
Structure (SMILES): Cc1cc(-c2ccnc(Nc3cnn(C)c3)n2)ccc1CNC(=O)N1CC(OC(C)C)C1.Cl [Compound 2 Type B]
